The values below are quoted from earlier work in patent US20110250274A1, “ESTRIOL FORMULATIONS” (priority 2008, published 2011).

Each structure is given as a SMILES string.

The conditions of series [1]: intravaginal route, avoiding enterohepatic circulation.
For series [2] the following is noted: compared with the other main human estrogens.
For series [3] the following is noted: oral administration.

`C[C@]12CC[C@@H]3c4ccc(O)cc4CC[C@H]3[C@@H]1C[C@@H](O)[C@@H]2O` [Estriol, estra-1,3,5(10)-triene-3,16a,17β-triol]: in series [1], the “plasma levels of free estriol” value is recorded as 20%. Moreover, the mitogenic activity entry in series [2] is recorded as “no mitogenic activity”. In series [3], the “share of the administered oral dose rapidly glucuro-conjugated by the liver” value is ~90% and the “share of the oral dose administered that reaches the systemic circulation” value is 1-2%.
